From patent US5874283A, “Mammalian flap-specific endonuclease” (Harrington; John Joseph, priority 1995, dated 1999)
Like-named read-outs stand apart in the source and are kept apart here.

Key:
[1] = molecular target: T1, FEN-1 (flap endonuclease-1) purified from the nuclear fraction of mouse pre-B cell line 1-8 (Mus musculus, UniProt P39749); conditions: replacement of MgCl2 with 5 mM EDTA
Source text: (§1) FEN-1 was purified from the nuclear fraction of a mouse pre-B cell line. The chromatographic behavior of FEN-1 was monitored using Flap Substrate 1 in the standard FEN-1 endonuclease assay.

[2] = molecular target: T1, FEN-1 (flap endonuclease-1) purified from the nuclear fraction of mouse pre-B cell line 1-8; test: biochemical; conditions: read-out: % Activity (endonuclease activity, FEN-1 activity versus divalent metal ion)
Source text: as §1

[3] = molecular target: T1, FEN-1 (flap endonuclease-1) purified from the nuclear fraction of mouse pre-B cell line 1-8; test: biochemical; conditions: 0.5 h, read-out: % Activity (exonuclease activity, FEN-1 activity versus divalent metal ion)
Procedure: All purification steps were carried out at 0°-4° C. Six liters of the murine pre-B cell line, 1-8 (Alt et al., 1984), were grown to 2×10^6 cells/ml in RPMI 1640, 10% FBS, 50 μM β-mercaptoethanol (βME), 100 μg/ml penicillin-streptomycin in spinner flasks. Eighteen liters of RPMI 1640 and 100 μg/ml penicillin-streptomycin were then added, and the cells were allowed to grow for an additional 24 h. The cells were harvested at a cell density of 1-1.5×10^6 cells/ml and spun at 1000 g in a Beckman JA-10 rotor for 5 min. The cell pellet was then washed with 500 ml of ice-cold PBS (5 mM NaPi pH 7.4, 137 mM NaCl, 3 mM KCl) supplemented with 1 g/l MgCl2 and pelleted as above. Nuclei were isolated by allowing the cell pellet to swell in 100 ml Buffer A (10 mM HEPES-KOH pH 7.8, 1.5 mM MgCl2, 10 mM KCl, 0.5 mM DTT) for 10 min on ice. The swollen cells were spun for 5 min at 2500 g in a Beckman J6B centrifuge, resuspended in 40 ml Buffer A and homogenized with 20 strokes of the B-pestle in a Dounce homogenizer. The nuclei were collected by centrifugation at 2500 g in a Beckman J6B for 5 min and lysed by adding 40 ml of Buffer B (20 mM EPES-KOH pH 7.8, 0.42M NaCl, 25% glycerol, 1.5 mM MgCl2, 0.2 mM EDTA, 0.5 mM DTT, 0.5 mM PMSF). Nuclear lysis was completed with 20 strokes of the B-pestle in a Dounce homogenizer. […]

T1 sequence (P39749 whole entry): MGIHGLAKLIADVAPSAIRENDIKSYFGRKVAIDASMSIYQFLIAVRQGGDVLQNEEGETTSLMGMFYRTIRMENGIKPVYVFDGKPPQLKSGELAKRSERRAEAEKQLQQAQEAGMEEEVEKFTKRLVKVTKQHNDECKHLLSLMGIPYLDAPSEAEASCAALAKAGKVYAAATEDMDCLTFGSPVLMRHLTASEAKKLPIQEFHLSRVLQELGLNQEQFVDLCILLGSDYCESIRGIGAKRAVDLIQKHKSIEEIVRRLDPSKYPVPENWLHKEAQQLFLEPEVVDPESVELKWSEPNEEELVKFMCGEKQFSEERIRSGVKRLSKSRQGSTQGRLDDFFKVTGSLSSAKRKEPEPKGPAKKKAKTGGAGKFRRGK

Q: What does the source list for `O=C(O)CN(CCN(CC(=O)O)CC(=O)O)CC(=O)O` [EDTA]?
A: Inhibition of the flap cleavage reaction [1]: completely inhibited; activity at 5000 µM [2]: < 1%; activity at 5000 µM [3]: < 0.5%
